Here are results for eleven molecules from ChEMBL document CHEMBL5346894, “Developments of PROTACs technology in immune-related diseases” (Eur J Med Chem, 2023).

Structures are written as SMILES. A value given as a limit tells only on which side of the number the result lay.

Assay [1] has as its target Protein cereblon/Poly [ADP-ribose] polymerase 1 (Homo sapiens) (UniProt P09874+Q96SW2). The assay is described as follows: Protac activity at CRBN/PARP1 in human SW620 cells assessed as degradation of PARP1 at <100 nM measured after 24 hrs by Western blot analysis relative to control. The class given is cell-based. For orientation: Immunoblotting shows a protein as a band on a membrane.

Assay [2] deals with Protein cereblon/Indoleamine 2,3-dioxygenase 1 (Homo sapiens) (UniProt P14902+Q96SW2). The assay is described as follows: Protac activity at CRBN/IDO1 in human HeLa cell assessed as degradation of IDO1 measured after 24 hrs by Western blot assay relative to control. The format is cell-based.
Assay [3] addresses von Hippel-Lindau disease tumor suppressor/Histone deacetylase 3/Lysine-specific histone demethylase 1A/REST corepressor 1 (Homo sapiens, UniProt O15379+O60341+P40337+Q9UKL0). Briefly: Protac activity at VHL/LSD1/HDAC3/CoREST complex interaction in human ES1 cells assessed as induction of HDAC3 degradation by fluorescence based assay. The format is cell-based.
In assay [4] the target is von Hippel-Lindau disease tumor suppressor/Histone deacetylase 1/Lysine-specific histone demethylase 1A/REST corepressor 1 (Homo sapiens, UniProt O60341+P40337+Q13547+Q9UKL0). Briefly: Protac activity at VHL/LSD1/HDAC1/CoREST complex interaction in human ES1 cells assessed as HDAC1 degradation by fluorescence based assay. The format is cell-based.
Assay [5] has as its target von Hippel-Lindau disease tumor suppressor/Histone deacetylase 2/Lysine-specific histone demethylase 1A/REST corepressor 1 (Homo sapiens, UniProt O60341+P40337+Q92769+Q9UKL0). The assay is described as follows: Protac activity at VHL/LSD1/HDAC2/CoREST complex interaction in human ES1 cells assessed as induction of HDAC2 degradation by fluorescence based assay. The format is cell-based.

For assay [6], the target named is von Hippel-Lindau disease tumor suppressor/Interleukin-1 receptor-associated kinase 4 (Homo sapiens, UniProt Q9NWZ3+P40337). The assay is described as follows: Protac activity at VHL/IRAK4 in human HEK293T cells assessed as IRAK4 degradation measured after 24 hrs by immunoblotting analysis. The format is cell-based.
The target of a further assay is Protein cereblon (Homo sapiens, UniProt Q96SW2). The assay is described as follows: Binding affinity to CRBN (unknown origin) assessed as dissociation constant by Tr-FRET assay.
Assay [7] has as its target Protein cereblon/Receptor-interacting serine/threonine-protein kinase 2 (Homo sapiens, UniProt O43353+Q96SW2). The assay is described as follows: Protac activity at CRBN/RIPK2 in human THP-1 cells assessed as degradation of RIPK2 measured after 18 hrs by capillary immunoassay. The class given is cell-based.
Assay [8] concerns the target Protein cereblon/Histone acetyltransferase KAT2A (Homo sapiens) (UniProt Q92830+Q96SW2). Briefly: Protac activity at CRBN/GCN5 in human THP-1 cells assessed as GCN5 degradation at 3 nM measured after 10 mins by Western blot analysis relative to control. The class given is cell-based.
In assay [9] the target is Protein cereblon/Histone acetyltransferase KAT2B (Homo sapiens) (UniProt Q92831+Q96SW2). The assay is described as follows: Protac activity at CRBN/PCAF in human THP-1 cells assessed as PCAF degradation at 1.5 nM measured after 10 mins by Western blot analysis relative to control. The format is cell-based.
Assay [10] addresses T1, von Hippel-Lindau disease tumor suppressor/Receptor-interacting serine/threonine-protein kinase 2 (Homo sapiens, UniProt O43353+P40337). The assay is described as follows: Protac activity at VHL/RIPK2 in human THP-1 cells assessed as RIPK2 degradation measured after 16 hrs by Western blot analysis. The format is cell-based.
For assay [11], the target named is Receptor-interacting serine/threonine-protein kinase 2 (Homo sapiens, UniProt O43353). Briefly: Inhibition of RIPK2 (unknown origin) by fluorescence polarization assay. A general note: In fluorescence polarisation assays a small probe gives low polarisation when free and higher when bound to something large.
The target of assay [12] is T1, von Hippel-Lindau disease tumor suppressor/Receptor-interacting serine/threonine-protein kinase 2. Briefly: Protac activity at VHL/RIPK2 in human THP-1 cells assessed as RIPK2 degradation at 10 nM measured after 16 hrs by Western blot analysis relative to control. The class given is cell-based.
Another assay deals with HeLa. Briefly: Anticancer activity against human HeLa cells assessed as cell growth inhibition measured after 24 hrs by MTT assay. The class given is functional, cell-based. For orientation: Formazan colour is commonly taken as a measure of viable cells.
The target in assay [13] is T2, von Hippel-Lindau disease tumor suppressor/Histone deacetylase 3 (Homo sapiens, UniProt O15379+P40337). The assay is described as follows: Protac activity at VHL/HDAC3 in human MDA-MB-468 cells assessed as HDAC3 degradation measured after 14 hrs by Western blot analysis. The class given is cell-based.
The target in assay [14] is T2, von Hippel-Lindau disease tumor suppressor/Histone deacetylase 3. The assay is described as follows: Protac activity at VHL/HDAC3 in human MDA-MB-468 cells assessed as HDAC3 degradation at 125 nM measured after 8 hrs by Western blot analysis relative to control. The class given is cell-based.
A further assay deals with MOLT-4. The assay is described as follows: Anticancer activity against human MOLT-4 cells assessed as cell growth inhibition. The class given is functional, cell-based.
For a further assay, the system named is Jurkat. Briefly: Anticancer activity against human Jurkat cells assessed as cell growth inhibition. The class given is functional, cell-based.
The next assay deals with HL-60. Briefly: Anticancer activity against human HL-60 cells assessed as cell growth inhibition. The class given is functional, cell-based.
Assay [15] deals with E3 ubiquitin-protein ligase XIAP/Receptor-interacting serine/threonine-protein kinase 2 (Homo sapiens, UniProt P98170+O43353). The assay is described as follows: Protac activity at IAP/RIPK2 in human THP-1 cells assessed as degradation of RIPK2 measured after 18 hrs by capillary immunoassay. The class given is cell-based.
Sequence of E3 ubiquitin-protein ligase XIAP/Receptor-interacting serine/threonine-protein kinase 2 (P98170 whole entry): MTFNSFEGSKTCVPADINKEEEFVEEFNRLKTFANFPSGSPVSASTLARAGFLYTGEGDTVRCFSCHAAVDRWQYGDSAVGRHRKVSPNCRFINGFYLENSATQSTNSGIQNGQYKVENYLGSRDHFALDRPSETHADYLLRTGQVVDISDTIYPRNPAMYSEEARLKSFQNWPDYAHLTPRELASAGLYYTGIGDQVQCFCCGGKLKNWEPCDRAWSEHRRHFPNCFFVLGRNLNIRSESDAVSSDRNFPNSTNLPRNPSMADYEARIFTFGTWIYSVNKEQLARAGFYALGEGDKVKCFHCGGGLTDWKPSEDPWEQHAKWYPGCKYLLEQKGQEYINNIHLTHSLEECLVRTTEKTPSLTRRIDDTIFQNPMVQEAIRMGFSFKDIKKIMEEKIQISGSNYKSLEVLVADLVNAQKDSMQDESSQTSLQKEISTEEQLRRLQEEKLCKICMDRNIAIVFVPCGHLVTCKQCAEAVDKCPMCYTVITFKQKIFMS
Sequence of E3 ubiquitin-protein ligase XIAP/Receptor-interacting serine/threonine-protein kinase 2 (O43353 whole entry): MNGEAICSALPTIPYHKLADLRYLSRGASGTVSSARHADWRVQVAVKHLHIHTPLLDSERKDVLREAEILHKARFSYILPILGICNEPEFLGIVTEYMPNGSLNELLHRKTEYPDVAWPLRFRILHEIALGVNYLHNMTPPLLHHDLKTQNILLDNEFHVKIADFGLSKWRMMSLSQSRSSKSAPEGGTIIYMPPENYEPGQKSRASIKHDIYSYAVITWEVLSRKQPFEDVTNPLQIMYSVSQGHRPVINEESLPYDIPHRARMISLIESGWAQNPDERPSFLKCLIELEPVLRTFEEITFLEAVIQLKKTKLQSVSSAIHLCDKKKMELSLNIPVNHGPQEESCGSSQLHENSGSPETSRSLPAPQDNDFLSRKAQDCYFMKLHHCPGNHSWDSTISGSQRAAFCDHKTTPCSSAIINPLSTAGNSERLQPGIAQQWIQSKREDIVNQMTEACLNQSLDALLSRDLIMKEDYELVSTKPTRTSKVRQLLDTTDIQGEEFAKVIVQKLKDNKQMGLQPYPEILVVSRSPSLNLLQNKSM

Sequence of Protein cereblon/Histone acetyltransferase KAT2A (Homo sapiens) (Q92830 2-837 limits assumed): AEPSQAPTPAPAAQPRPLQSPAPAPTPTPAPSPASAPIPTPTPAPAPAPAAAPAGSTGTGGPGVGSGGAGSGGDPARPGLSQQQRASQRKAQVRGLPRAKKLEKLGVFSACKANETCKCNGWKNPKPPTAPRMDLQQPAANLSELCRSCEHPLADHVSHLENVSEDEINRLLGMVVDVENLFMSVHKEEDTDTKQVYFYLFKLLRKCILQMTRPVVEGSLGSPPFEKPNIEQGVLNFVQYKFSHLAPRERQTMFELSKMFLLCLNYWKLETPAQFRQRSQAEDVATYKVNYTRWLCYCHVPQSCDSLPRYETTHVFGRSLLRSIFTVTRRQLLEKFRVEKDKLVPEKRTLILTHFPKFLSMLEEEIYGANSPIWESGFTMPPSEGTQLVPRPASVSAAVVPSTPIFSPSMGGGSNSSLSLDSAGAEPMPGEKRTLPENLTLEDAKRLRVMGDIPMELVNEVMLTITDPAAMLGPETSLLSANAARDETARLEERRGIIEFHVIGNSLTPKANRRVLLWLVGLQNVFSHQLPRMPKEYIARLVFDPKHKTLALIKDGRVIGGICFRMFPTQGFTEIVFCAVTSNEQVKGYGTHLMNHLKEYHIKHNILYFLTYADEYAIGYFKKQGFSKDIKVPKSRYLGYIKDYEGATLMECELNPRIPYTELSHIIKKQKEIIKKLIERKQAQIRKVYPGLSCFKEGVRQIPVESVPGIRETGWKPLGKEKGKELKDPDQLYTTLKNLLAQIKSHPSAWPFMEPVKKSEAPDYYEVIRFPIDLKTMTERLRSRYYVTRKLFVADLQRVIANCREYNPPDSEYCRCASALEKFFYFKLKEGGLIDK
Sequence of Protein cereblon/Histone acetyltransferase KAT2A (Homo sapiens) (Q96SW2 whole entry partner): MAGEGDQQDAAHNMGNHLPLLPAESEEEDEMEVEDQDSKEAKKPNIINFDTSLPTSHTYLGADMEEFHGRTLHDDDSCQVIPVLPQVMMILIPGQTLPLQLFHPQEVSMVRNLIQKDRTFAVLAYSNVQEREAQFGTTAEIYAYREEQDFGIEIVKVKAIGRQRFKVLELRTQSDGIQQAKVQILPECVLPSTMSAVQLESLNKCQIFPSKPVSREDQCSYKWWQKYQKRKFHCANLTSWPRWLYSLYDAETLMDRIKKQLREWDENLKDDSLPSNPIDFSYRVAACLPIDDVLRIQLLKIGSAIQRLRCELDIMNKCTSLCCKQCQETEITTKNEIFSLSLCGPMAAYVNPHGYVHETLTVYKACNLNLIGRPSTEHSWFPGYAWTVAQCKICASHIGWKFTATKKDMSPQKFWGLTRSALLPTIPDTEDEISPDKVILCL
Sequence of Protein cereblon/Poly [ADP-ribose] polymerase 1 (Homo sapiens) (P09874 2-1014 limits assumed): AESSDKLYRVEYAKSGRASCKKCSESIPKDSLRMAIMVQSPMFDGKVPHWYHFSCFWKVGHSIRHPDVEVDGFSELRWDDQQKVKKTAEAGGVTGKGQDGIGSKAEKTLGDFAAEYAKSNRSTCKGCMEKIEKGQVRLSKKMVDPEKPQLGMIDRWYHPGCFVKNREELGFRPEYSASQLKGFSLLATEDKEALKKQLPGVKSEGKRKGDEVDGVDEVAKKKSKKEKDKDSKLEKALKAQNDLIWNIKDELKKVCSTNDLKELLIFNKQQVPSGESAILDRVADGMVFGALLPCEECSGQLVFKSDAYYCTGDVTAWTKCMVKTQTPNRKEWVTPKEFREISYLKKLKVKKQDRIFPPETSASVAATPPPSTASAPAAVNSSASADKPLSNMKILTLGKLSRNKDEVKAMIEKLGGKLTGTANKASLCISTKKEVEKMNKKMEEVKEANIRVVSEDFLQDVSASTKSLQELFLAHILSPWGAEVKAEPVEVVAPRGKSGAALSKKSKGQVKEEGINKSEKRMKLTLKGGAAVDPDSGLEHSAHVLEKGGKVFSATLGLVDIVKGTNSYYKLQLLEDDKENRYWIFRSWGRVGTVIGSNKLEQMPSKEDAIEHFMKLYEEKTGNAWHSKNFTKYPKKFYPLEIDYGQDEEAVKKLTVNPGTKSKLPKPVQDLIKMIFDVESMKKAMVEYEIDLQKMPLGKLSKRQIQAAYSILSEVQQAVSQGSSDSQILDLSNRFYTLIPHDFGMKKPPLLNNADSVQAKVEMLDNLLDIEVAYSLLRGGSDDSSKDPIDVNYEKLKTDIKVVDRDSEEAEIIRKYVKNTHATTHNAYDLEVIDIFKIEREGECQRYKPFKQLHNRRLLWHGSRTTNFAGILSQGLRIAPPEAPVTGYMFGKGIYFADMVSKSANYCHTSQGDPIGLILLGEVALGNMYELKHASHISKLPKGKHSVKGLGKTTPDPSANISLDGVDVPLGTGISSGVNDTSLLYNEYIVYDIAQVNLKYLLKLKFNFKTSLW
Sequence of Protein cereblon/Poly [ADP-ribose] polymerase 1 (Homo sapiens) (Q96SW2 whole entry partner): as the sequence (Q96SW2 whole entry partner) above
Sequence of von Hippel-Lindau disease tumor suppressor/Histone deacetylase 3/Lysine-specific histone demethylase 1A/REST corepressor 1 (O15379 whole entry, looked up, other chains not shown): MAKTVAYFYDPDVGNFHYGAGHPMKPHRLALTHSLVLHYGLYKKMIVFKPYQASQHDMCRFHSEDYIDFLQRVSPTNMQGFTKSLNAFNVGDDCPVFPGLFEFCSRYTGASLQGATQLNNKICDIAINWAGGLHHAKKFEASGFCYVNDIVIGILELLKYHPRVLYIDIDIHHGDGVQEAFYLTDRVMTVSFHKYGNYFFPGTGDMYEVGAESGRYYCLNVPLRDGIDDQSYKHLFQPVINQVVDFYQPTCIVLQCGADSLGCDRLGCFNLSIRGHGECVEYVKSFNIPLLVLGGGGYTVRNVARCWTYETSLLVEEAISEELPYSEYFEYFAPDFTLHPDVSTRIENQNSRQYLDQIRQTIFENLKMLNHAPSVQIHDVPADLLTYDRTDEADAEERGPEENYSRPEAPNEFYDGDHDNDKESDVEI
Sequence of von Hippel-Lindau disease tumor suppressor/Histone deacetylase 3/Lysine-specific histone demethylase 1A/REST corepressor 1 (P40337 whole entry, looked up, other chains not shown): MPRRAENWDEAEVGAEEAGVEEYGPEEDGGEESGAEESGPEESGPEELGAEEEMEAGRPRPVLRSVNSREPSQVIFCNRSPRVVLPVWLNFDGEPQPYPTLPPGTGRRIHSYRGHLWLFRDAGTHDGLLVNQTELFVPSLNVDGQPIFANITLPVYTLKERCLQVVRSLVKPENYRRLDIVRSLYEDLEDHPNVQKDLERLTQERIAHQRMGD
Sequence of von Hippel-Lindau disease tumor suppressor/Histone deacetylase 3/Lysine-specific histone demethylase 1A/REST corepressor 1 (Q9UKL0 whole entry, looked up, other chains not shown): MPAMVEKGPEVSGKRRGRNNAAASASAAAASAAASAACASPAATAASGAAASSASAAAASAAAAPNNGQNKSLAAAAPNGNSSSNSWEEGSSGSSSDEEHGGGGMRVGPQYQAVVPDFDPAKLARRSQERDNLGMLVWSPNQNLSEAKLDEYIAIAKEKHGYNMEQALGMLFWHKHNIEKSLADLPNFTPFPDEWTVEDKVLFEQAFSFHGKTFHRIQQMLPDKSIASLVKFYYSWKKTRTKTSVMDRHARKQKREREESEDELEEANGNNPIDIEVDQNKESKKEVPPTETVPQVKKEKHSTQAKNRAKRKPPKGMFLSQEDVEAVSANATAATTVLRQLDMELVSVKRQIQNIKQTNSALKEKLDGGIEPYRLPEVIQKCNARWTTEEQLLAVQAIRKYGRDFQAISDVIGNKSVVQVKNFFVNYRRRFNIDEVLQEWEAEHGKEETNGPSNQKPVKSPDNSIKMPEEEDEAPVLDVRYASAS

For `O=C1CCC(N2Cc3c(NCCCCCCCCCCCNC(=O)c4cc(Cc5n[nH]c(=O)c6ccccc56)ccc4F)cccc3C2=O)C(=O)N1` (stereo not given), the Activity in assay [1] was 80%. For the molecule `O=C1CCC(N2C(=O)c3cccc(NCCOCCOCCOCCOCCOCCOCCOCCNCCNc4nonc4/C(=N/O)Nc4ccc(F)c(Br)c4)c3C2=O)C(=O)N1` (stereo not given), the Emax (as a rule, the greatest response seen or fitted, relative to the assay's reference) in assay [2] came to 93%.

For the molecule `Cc1ncsc1-c1ccc(CNC(=O)[C@@H]2C[C@@H](O)CN2C(=O)[C@@H](NC(=O)CCCCCCCCCCC(=O)Nc2ccc(C(=O)Nc3ccccc3N)cc2)C(C)(C)C)cc1`, the IC50 in assay [3], in [4] and in assay [5] was 500 nM each time. With `CC(C)Nc1cc(-n2ccc3cc(C#N)cnc32)ncc1C(=O)N[C@H]1CC[C@H](C(=O)NCCOCCNC(=O)COc2cccc3c2C(=O)N(C2CCC(=O)NC2=O)C3=O)CC1` (stereo not given in full), in assay [6], the DC50 (as a rule, the midpoint of the concentration-degradation curve) turned out to be 405 nM. Moreover, the dissociation constant Kd (usually the free concentration of one partner at which half of the binding sites on the other are occupied at equilibrium, for simple one-to-one binding) on Protein cereblon is 490 nM.

For the molecule `CC(C)(C)S(=O)(=O)c1cc2c(Nc3ccc4scnc4c3)ccnc2cc1OCCOCCOCCOCCOCC(=O)Nc1cccc2c1CN(C1CCC(=O)NC1=O)C2=O` (stereo not given), in assay [7], the DC50 is 2.5 nM. Take `CN1C[C@H](Nc2cnn(C)c(=O)c2Br)C[C@H](c2ccc(C(=O)N(C)CCCN(C)c3ccc(CCCOc4cccc5c4C(=O)N(C4CCC(=O)NC4=O)C5=O)cc3)cc2)C1` (stereo not given in full): the Activity in assay [8] and in assay [9] was 50% each time. Regarding `C=C([C@@H](NC(=O)COCCOCCOCCOCCOc1cc2nccc(Nc3ccc4scnc4c3)c2cc1S(=O)(=O)C(C)(C)C)C(C)(C)C)N1C[C@H](O)C[C@H]1C(=O)NCc1ccc(-c2scnc2C)cc1`, the DC50 in assay [10] was found to be 1.4 nM. In assay [11], the IC50 – broadly, the concentration at which inhibition is half-maximal – was found to be 10 nM. For the same molecule, in [12], the maximal response (Emax) is > 95%. Consider `CC1(NCc2cn(CCOCCOCCOCCOCCNc3cccc4c3C(=O)N(C3CCC(=O)NC3=O)C4=O)nn2)CCN(c2cnc(-c3cccc(Cl)c3Cl)c(N)n2)CC1` (stereo not given), for which the IC50 in the assay with HeLa was 4.3 nM.

As for `CCCNNC(=O)c1ccc(-c2ccc(NC(=O)CCCCCCC(=O)N[C@H](C(=O)N3C[C@H](O)C[C@H]3C(=O)N[C@@H](C)c3ccc(-c4scnc4C)cc3)C(C)(C)C)cc2)cc1`, the DC50 in assay [13] is 42 nM. Further, in assay [14], the Activity stood at 70%. Regarding `O=C(/C=C/c1cccnc1)NCCCCC1CCN(C(=O)c2ccc(N3CCN(CCCCCC#Cc4cccc5c4CN(C4CCC(=O)NC4=O)C5=O)CC3)cc2)CC1` (stereo not given), the IC50 came out at 2.96 nM in the assay with MOLT-4, 4.46 nM in the assay with Jurkat and 8.56 nM with HL-60. Turning to `CN[C@@H](C)C(=O)N[C@H](C(=O)N1Cc2cc(OCCOCCOCCOCCOc3cc4nccc(Nc5ccc6scnc6c5)c4cc3S(=O)(=O)C(C)(C)C)ccc2C[C@H]1C(=O)N[C@@H]1CCCc2ccccc21)C(C)(C)C`, the DC50 in assay [15] was determined as 2 nM.
